Experiments:
[1] = system: IFN-γ-expressing immune cells in the CP; experiment: Flow cytometry of CP IFN-γ-expressing immune cells; assay type: in vivo, mouse; conditions: weekly-GA, 5XFAD AD-Tg mice, end of 1st week of regimen
Experimental: Mice were transcardially perfused with PBS, and tissues were treated as previously described (Baruch et al, 2013). Brains were dissected and the different brain regions were removed under a dissecting microscope (Stemi DV4; Zeiss) in PBS, and tissues were dissociated using the gentleMACS™ dissociator (Miltenyi Biotec). Choroid plexus tissues were isolated from the lateral, third and fourth ventricles of the brain, incubated at 37° C. for 45 min in PBS (with Ca^2+/Mg^2+) containing 400 U/ml collagenase type IV (Worthington Biochemical Corporation), and then manually homogenized by pipetting. Spleens were mashed with the plunger of a syringe and treated with ACK (ammonium chloride potassium) lysing buffer to remove erythrocytes. In all cases, samples were stained according to the manufacturers' protocols. All samples were filtered through a 70 μm nylon mesh, and blocked with anti-Fc CD16/32 (1:100; BD Biosciences). For intracellular staining of IFN-γ, the cells were incubated with […] (10 ng/ml; Sigma-Aldrich) and ionomycin (250 ng/ml; Sigma-Aldrich) for 6 h, and Brefeldin-A (10 μg/ml; Sigma-Aldrich) was added for the last 4 h. Intracellular labeling of cytokines was done with BD Cytofix/Cytoperm™ Plus fixation/permeabilization kit (cat. no. 555028). […] Cells were analyzed on an LSRII cytometer (BD Biosciences) using FlowJo software. […]

GFP+ mo-MΦ = experiment: Homing of GFP+ mo-MΦ in AD-Tg/CX3CR1GFP/+ BM chimeras; assay type: in vivo, mouse
Experimental: Tissue processing and immunohistochemistry were performed on paraffin embedded sectioned mouse (6 μm thick) and human (10 μm thick) brains. For human ICAM-1 staining, primary mouse anti-ICAM (1:20 Abcam; ab2213) antibody was used. Slides were incubated for 10 min with 3% H2O2, and a secondary biotin-conjugated anti-mouse antibody was used, followed by biotin/avidin amplification with Vectastain ABC kit (Vector Laboratories). Subsequently, 3,3′-diaminobenzidine (DAB substrate) (Zytomed kit) was applied; slides were dehydrated and mounted with xylene-based mounting solution. For tissue stainings, mice were transcardially perfused with PBS prior to tissue excision and fixation. CP tissues were isolated under a dissecting microscope (Stemi DV4; Zeiss) from the lateral, third, and fourth ventricles of the brain. […] Microscopic analysis, was performed using a fluorescence microscope (E800; Nikon) or laser-scanning confocal microscope (Carl Zeiss, Inc.). The fluorescence microscope was equipped with a digital camera (DXM 1200F; Nikon), and with either a 20× NA 0.50 or 40× NA 0.75 objective lens (Plan Fluor; Nikon). […] For quantification of staining intensity, total cell and background staining was measured using ImageJ software (NIH), and intensity of specific staining was calculated, as previously described (Burgess et al, 2010). […]

Substance: Glatiramer acetate [GA]
- IFN-γ-producing cells at the CP [1]: increase
- homing of GFP+ mo-MΦ to the CP and adjacent ventricular spaces (GFP+ mo-MΦ; weekly-GA vs vehicle-treated AD-Tg/CX3CR1GFP/+ controls): increased homing
- GFP+ mo-MΦ in the brain parenchyma (immunohistochemistry) (GFP+ mo-MΦ; weekly-GA, AD-Tg/CX3CR1GFP/+ chimeras): accumulation at sites of cerebral plaque formation
